SMILES strings stand for the structures.

This test is described as follows: Inhibition of PCSK9 transcriptional activity in human HepG2 cells by luciferase reporter based assay.

Molecule `CCOC(=O)c1ccc2nc(N3CCN(NC(=O)c4ccc(Cl)c(Cl)c4)CC3)sc2c1` registered an IC50 of 6.53 µM. This lies in the single-digit micromolar range.

Molecule `CC(C)(C)OC(=O)N1CCN(Cc2ccc3nc(NC(=O)c4ccc(S(=O)(=O)NCCC#N)cc4)sc3c2)CC1` came in with a 50% inhibitory concentration (IC50) of 3.96 µM.

The values above are taken from BindingDB's records for PubMed 37939861 (Hebei Normal University).
